Measurements as given in ChEMBL document CHEMBL6109159, “Discovery of a Potent and Selective Protein Arginine Methyltransferase 5 (PRMT5) PROTAC Degrader” (J Med Chem, 2025).
Activity calls are given as the source filed them. No cut-off for these calls is given here.

Assays:
Type in all cases: cell-based
[1] = biological target: T1, von Hippel-Lindau disease tumor suppressor/Methylosome protein WDR77 (Homo sapiens, UniProt Q9BQA1+P40337); assay: PROTAC activity at MEP50/VHL in human MDA-MB-468 cells assessed as relative protein level at 5 uM measured after 24 hrs by Western blot analysis
T1 sequence (P40337 whole entry, looked up): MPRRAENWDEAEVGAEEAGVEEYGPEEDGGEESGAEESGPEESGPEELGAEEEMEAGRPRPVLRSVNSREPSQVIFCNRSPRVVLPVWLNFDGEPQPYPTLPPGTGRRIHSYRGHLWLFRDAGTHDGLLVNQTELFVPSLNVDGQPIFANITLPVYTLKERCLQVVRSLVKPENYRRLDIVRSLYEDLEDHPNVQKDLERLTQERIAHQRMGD
T1 sequence (Q9BQA1 whole entry, looked up): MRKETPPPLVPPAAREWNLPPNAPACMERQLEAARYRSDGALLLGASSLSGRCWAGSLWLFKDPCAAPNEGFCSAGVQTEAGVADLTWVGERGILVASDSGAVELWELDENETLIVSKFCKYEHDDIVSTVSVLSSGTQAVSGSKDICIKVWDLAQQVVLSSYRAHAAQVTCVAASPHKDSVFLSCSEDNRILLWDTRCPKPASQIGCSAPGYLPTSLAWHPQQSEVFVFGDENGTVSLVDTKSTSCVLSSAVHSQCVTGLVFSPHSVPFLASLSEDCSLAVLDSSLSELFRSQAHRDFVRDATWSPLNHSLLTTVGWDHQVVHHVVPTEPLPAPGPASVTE

[2] = biological target: T1, von Hippel-Lindau disease tumor suppressor/Methylosome protein WDR77; assay: PROTAC activity at MEP50/VHL in human MDA-MB-468 cells assessed as relative protein level at 0.5 uM measured after 24 hrs by Western blot analysis
[3] = biological target: T2, von Hippel-Lindau disease tumor suppressor/Protein arginine N-methyltransferase 5 (Homo sapiens, UniProt O14744+P40337); assay: PROTAC activity at PRMT5/VHL in human MDA-MB-468 cells assessed as relative protein level at 5 uM measured after 24 hrs by Western blot analysis
T2 sequence (O14744 whole entry, looked up): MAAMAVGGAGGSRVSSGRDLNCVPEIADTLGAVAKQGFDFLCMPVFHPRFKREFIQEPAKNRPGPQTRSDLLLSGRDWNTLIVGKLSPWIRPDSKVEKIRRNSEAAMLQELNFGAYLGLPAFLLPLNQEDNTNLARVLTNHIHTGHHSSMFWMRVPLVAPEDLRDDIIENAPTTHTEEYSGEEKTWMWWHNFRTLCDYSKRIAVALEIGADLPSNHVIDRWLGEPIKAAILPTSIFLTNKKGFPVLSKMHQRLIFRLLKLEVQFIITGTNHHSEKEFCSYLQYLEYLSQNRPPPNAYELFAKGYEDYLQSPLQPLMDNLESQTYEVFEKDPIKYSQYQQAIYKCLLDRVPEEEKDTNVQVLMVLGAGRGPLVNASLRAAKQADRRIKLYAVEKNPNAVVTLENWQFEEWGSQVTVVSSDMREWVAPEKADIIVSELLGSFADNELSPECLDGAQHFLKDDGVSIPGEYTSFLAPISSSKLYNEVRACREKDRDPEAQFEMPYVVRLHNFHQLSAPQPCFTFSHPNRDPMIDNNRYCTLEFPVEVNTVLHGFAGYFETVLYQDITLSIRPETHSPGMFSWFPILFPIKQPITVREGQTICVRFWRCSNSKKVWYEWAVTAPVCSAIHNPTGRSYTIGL
T2 sequence (P40337 whole entry, looked up): as the sequence (P40337 whole entry, looked up) above

[4] = biological target: T2, von Hippel-Lindau disease tumor suppressor/Protein arginine N-methyltransferase 5; assay: PROTAC activity at […]/VHL in human MDA-MB-468 cells assessed as relative protein level at 0.5 uM measured after 24 hrs by Western blot analysis

| SMILES | Activity [1] | Activity [2] | Activity [3] | Activity [4] |
| --- | --- | --- | --- | --- |
| Cc1ncsc1-c1ccc(CNC(=O)[C@@H]2C[C@@H](O)CN2C(=O)[C@@H](NC(=O)C2(F)CC2)C(C)(C)C)c(OCC(=O)NCCCCC(=O)N2CCC(Nc3cc(C(=O)NC[C@H](O)CN4CCc5ccccc5C4)ncn3)CC2)c1 | Active | Active | Active | Active |
| Cc1ncsc1-c1ccc([C@H](CC(=O)NCCOCCOCCC(=O)N2CCC(Nc3cc(C(=O)NC[C@H](O)CN4CCc5ccccc5C4)ncn3)CC2)NC(=O)[C@@H]2C[C@@H](O)CN2C(=O)[C@@H](NC(=O)C2(F)CC2)C(C)(C)C)cc1 | Active | Active | Active | Active |
| Cc1ncsc1-c1ccc([C@H](CC(=O)NCCCCCC(=O)N2CCC(Nc3cc(C(=O)NC[C@H](O)CN4CCc5ccccc5C4)ncn3)CC2)NC(=O)[C@@H]2C[C@@H](O)CN2C(=O)[C@@H](NC(=O)C2(F)CC2)C(C)(C)C)cc1 | Active | Active | Active | Active |
| Cc1ncsc1-c1ccc(CNC(=O)[C@@H]2C[C@@H](O)CN2C(=O)[C@@H](NC(=O)C2(F)CC2)C(C)(C)C)c(OCC(=O)NCCC(=O)N2CCC(Nc3cc(C(=O)NC[C@H](O)CN4CCc5ccccc5C4)ncn3)CC2)c1 | Active | Active | Active | Active |
| Cc1ncsc1-c1ccc(CNC(=O)[C@@H]2C[C@@H](O)CN2C(=O)[C@@H](NC(=O)C2(F)CC2)C(C)(C)C)c(OCC(=O)NCCCC(=O)N2CCC(Nc3cc(C(=O)NC[C@H](O)CN4CCc5ccccc5C4)ncn3)CC2)c1 | Active | Active | Active | Active |
| Cc1ncsc1-c1ccc(CNC(=O)[C@@H]2C[C@@H](O)CN2C(=O)[C@@H](NC(=O)C2(F)CC2)C(C)(C)C)c(OCC(=O)NCCOCCOCCOCCOCCOCCC(=O)N2CCC(Nc3cc(C(=O)NC[C@H](O)CN4CCc5ccccc5C4)ncn3)CC2)c1 | Active | inactive | inactive | inactive |
| Cc1ncsc1-c1ccc(CNC(=O)[C@@H]2C[C@@H](O)CN2C(=O)[C@@H](NC(=O)C2(F)CC2)C(C)(C)C)c(OCC(=O)NCCOCCOCCOCCOCCC(=O)N2CCC(Nc3cc(C(=O)NC[C@H](O)CN4CCc5ccccc5C4)ncn3)CC2)c1 | Active | inactive | inactive | inactive |
| Cc1ncsc1-c1ccc([C@H](CC(=O)NCCC(=O)N2CCC(Nc3cc(C(=O)NC[C@H](O)CN4CCc5ccccc5C4)ncn3)CC2)NC(=O)[C@@H]2C[C@@H](O)CN2C(=O)[C@@H](NC(=O)C2(F)CC2)C(C)(C)C)cc1 | Active | Active | Active | Active |
| Cc1ncsc1-c1ccc([C@H](CC(=O)NCCOCCC(=O)N2CCC(Nc3cc(C(=O)NC[C@H](O)CN4CCc5ccccc5C4)ncn3)CC2)NC(=O)[C@@H]2C[C@@H](O)CN2C(=O)[C@@H](NC(=O)C2(F)CC2)C(C)(C)C)cc1 | inactive | inactive | inactive | inactive |
| Cc1ncsc1-c1ccc(CNC(=O)[C@@H]2C[C@@H](O)CN2C(=O)[C@@H](NC(=O)C2(F)CC2)C(C)(C)C)c(OCC(=O)NCCOCCOCCOCCC(=O)N2CCC(Nc3cc(C(=O)NC[C@H](O)CN4CCc5ccccc5C4)ncn3)CC2)c1 | Active | Active | Active | Active |
| Cc1ncsc1-c1ccc(CNC(=O)[C@@H]2C[C@@H](O)CN2C(=O)[C@@H](NC(=O)C2(F)CC2)C(C)(C)C)c(OCC(=O)N2CCC(Nc3cc(C(=O)NC[C@H](O)CN4CCc5ccccc5C4)ncn3)CC2)c1 | Active | Active | Active | Active |
| Cc1ncsc1-c1ccc([C@H](CC(=O)NCCCCC(=O)N2CCC(Nc3cc(C(=O)NC[C@H](O)CN4CCc5ccccc5C4)ncn3)CC2)NC(=O)[C@@H]2C[C@@H](O)CN2C(=O)[C@@H](NC(=O)C2(F)CC2)C(C)(C)C)cc1 | Active | Active | Active | Active |
| Cc1ncsc1-c1ccc([C@H](CC(=O)N2CCC(Nc3cc(C(=O)NC[C@H](O)CN4CCc5ccccc5C4)ncn3)CC2)NC(=O)[C@@H]2C[C@@H](O)CN2C(=O)[C@@H](NC(=O)C2(F)CC2)C(C)(C)C)cc1 | Active | Active | Active | Active |
| Cc1ncsc1-c1ccc([C@H](CC(=O)NCCCC(=O)N2CCC(Nc3cc(C(=O)NC[C@H](O)CN4CCc5ccccc5C4)ncn3)CC2)NC(=O)[C@@H]2C[C@@H](O)CN2C(=O)[C@@H](NC(=O)C2(F)CC2)C(C)(C)C)cc1 | Active | Active | Active | Active |
| Cc1ncsc1-c1ccc([C@H](C)NC(=O)[C@@H]2C[C@@H](O)CN2C(=O)[C@@H](NC(=O)CCOCCOCCOCCOCCOCCC(=O)N2CCC(Nc3cc(C(=O)NC[C@H](O)CN4CCc5ccccc5C4)ncn3)CC2)C(C)(C)C)cc1 | Active | Active | Active | Active |
| Cc1ncsc1-c1ccc([C@H](C)NC(=O)[C@@H]2C[C@@H](O)CN2C(=O)[C@@H](NC(=O)CCOCCOCCOCCOCCC(=O)N2CCC(Nc3cc(C(=O)NC[C@H](O)CN4CCc5ccccc5C4)ncn3)CC2)C(C)(C)C)cc1 | Active | Active | Active | Active |
| Cc1ncsc1-c1ccc(CNC(=O)[C@@H]2C[C@@H](O)CN2C(=O)[C@@H](NC(=O)C2(F)CC2)C(C)(C)C)c(OCC(=O)NCCCCCC(=O)N2CCC(Nc3cc(C(=O)NC[C@H](O)CN4CCc5ccccc5C4)ncn3)CC2)c1 | Active | Active | Active | Active |
| Cc1ncsc1-c1ccc([C@H](CC(=O)NCC(=O)N2CCC(Nc3cc(C(=O)NC[C@H](O)CN4CCc5ccccc5C4)ncn3)CC2)NC(=O)[C@@H]2C[C@@H](O)CN2C(=O)[C@@H](NC(=O)C2(F)CC2)C(C)(C)C)cc1 | Active | Active | Active | Active |
| Cc1ncsc1-c1ccc(CNC(=O)[C@@H]2C[C@@H](O)CN2C(=O)[C@@H](NC(=O)C2(F)CC2)C(C)(C)C)c(OCC(=O)NCCOCCOCCC(=O)N2CCC(Nc3cc(C(=O)NC[C@H](O)CN4CCc5ccccc5C4)ncn3)CC2)c1 | inactive | inactive | inactive | inactive |
| Cc1ncsc1-c1ccc([C@H](CC(=O)NCCOCCOCCOCCC(=O)N2CCC(Nc3cc(C(=O)NC[C@H](O)CN4CCc5ccccc5C4)ncn3)CC2)NC(=O)[C@@H]2C[C@@H](O)CN2C(=O)[C@@H](NC(=O)C2(F)CC2)C(C)(C)C)cc1 | Active | Active | Active | Active |
| Cc1ncsc1-c1ccc([C@H](C)NC(=O)[C@@H]2C[C@@H](O)CN2C(=O)[C@@H](NC(=O)COCCOCCOCCOCCOCC(=O)N2CC(Nc3cc(C(=O)NC[C@H](O)CN4CCc5ccccc5C4)ccn3)C2)C(C)(C)C)cc1 | Active | inactive | inactive | inactive |
| Cc1ncsc1-c1ccc([C@H](CC(=O)NCCOCCOCCOCCOCCC(=O)N2CCC(Nc3cc(C(=O)NC[C@H](O)CN4CCc5ccccc5C4)ncn3)CC2)NC(=O)[C@@H]2C[C@@H](O)CN2C(=O)[C@@H](NC(=O)C2(F)CC2)C(C)(C)C)cc1 | Active | Active | Active | Active |
| Cc1ncsc1-c1ccc(CNC(=O)[C@@H]2C[C@@H](O)CN2C(=O)[C@@H](NC(=O)C2(F)CC2)C(C)(C)C)c(OCC(=O)NCCOCCC(=O)N2CCC(Nc3cc(C(=O)NC[C@H](O)CN4CCc5ccccc5C4)ncn3)CC2)c1 | Active | Active | Active | Active |
| Cc1ncsc1-c1ccc(CNC(=O)[C@@H]2C[C@@H](O)CN2C(=O)[C@@H](NC(=O)C2(F)CC2)C(C)(C)C)c(OCC(=O)NCC(=O)N2CCC(Nc3cc(C(=O)NC[C@H](O)CN4CCc5ccccc5C4)ncn3)CC2)c1 | Active | Active | Active | Active |
| Cc1ncsc1-c1ccc([C@H](CC(=O)NCCCCCCC(=O)N2CCC(Nc3cc(C(=O)NC[C@H](O)CN4CCc5ccccc5C4)ncn3)CC2)NC(=O)[C@@H]2C[C@@H](O)CN2C(=O)[C@@H](NC(=O)C2(F)CC2)C(C)(C)C)cc1 | Active | Active | Active | Active |
| Cc1ncsc1-c1ccc([C@H](C)NC(=O)[C@@H]2C[C@@H](O)CN2C(=O)[C@@H](NC(=O)COCCOCCOCCOCCOCC(=O)N2CCC(Nc3cc(C(=O)NC[C@H](O)CN4CCc5ccccc5C4)ncn3)CC2)C(C)(C)C)cc1 | Active | Active | Active | Active |
| Cc1ncsc1-c1ccc([C@H](CC(=O)NCCCCCCCC(=O)N2CCC(Nc3cc(C(=O)NC[C@H](O)CN4CCc5ccccc5C4)ncn3)CC2)NC(=O)[C@@H]2C[C@@H](O)CN2C(=O)[C@@H](NC(=O)C2(F)CC2)C(C)(C)C)cc1 | Active | Active | Active | Active |
